For experiment [1], the system named is Mycobacterium tuberculosis Ra. Description: XTT assay, anti-mycobacterial activity. It is filed as cell-based, M. tuberculosis H37Ra (ATCC 25177). To be noted: for inhibition at 100 µg/mL: inhibition at 100 μg/ml, 8th day of incubation. The procedure: M. tuberculosis H37Ra (ATCC 25177) cells, obtained from MTCC (Chandigarh, India), were grown to logarithmic phase (O.D, 0.595˜1.0) in a defined medium (M. pheli medium) under aerobic conditions in a shaker incubator (Thermo Electron Corporation Model 481) maintained at 150 rpm and 37° C. After growth, the culture was sonicated for 2 min using water bath sonicator. Sonicated cells were used for inoculation in micro plate wells. […] of culture containing ˜1×10^5 cells/ml was added to each well of 96 well plates. Camptothecanoid 1, 2 and 3 and Phthalate, […], dissolved in DMSO (Sigma), were added to the wells to attain a final concentration of 100 µg/ml respectively for screening. Then, the plate was incubated in a CO2 incubator at 37° C. The plate was taken out on the 8th day of incubation to measure the viable cell counts. The optical density of the culture was measured before addition of XTT (Sigma) at 470 nm which was served as a blank for the MIC calculations. XTT, 200 µM, was added and incubated for 20 min at 37° C. after shaking for 1 min. After 20 min of incubation, 60 µM Menadione (Sigma) was added and incubated at 37° C. for 40 min after mixing of 1 min. Finally, the optical density of the suspension was measured at 470 nm by using microplate reader. Isoniazid (Sigma) was used as a positive control.
On the technique in general: Tetrazolium dyes change colour on reduction, which living cells bring about.

The next experiment has as its system THP 1 cell line. Description: MTT cell proliferation assay. The experiment is classed as cell-based. As to conditions: Homo sapiens, read-out: MTT assay against THP 1 cell line % Inhibition. The procedure:
Camptothecanoid 1, 2 and 3 and Phthalate were tested for their inhibitory effect on THP-1 cells. About 10,000 cells were taken per well in 96-well tissue culture plates and treated with test samples at 100 μg/ml for 72 h. Vehicle control (DMSO, 1%) and positive control (Paclitaxel, 100 μg/ml) was run simultaneously. Cell proliferation was assessed with 10 μl from 5 mg/ml stock solution of tetrazolium salt (MTT) dissolved in cell culture medium and subsequently incubated for additional 1 h at 37° C., 5% of CO2 and 95% humidity in incubator. The violet coloured formazan crystals formed were solubilized in 200 μl of isopropanol and incubated for another 4 h. The optical density was read on a micro plate reader (Spectramax plus384 plate reader, Molecular Devices Inc) at 490 nm filter against a blank prepared from cell-free wells. Absorbance given by cells treated with the carrier DMSO alone was taken as 100% cell growth (Table 2).

In experiment [2] the test system is Sitophilus oryzae and Rhizopertha dominica. Description: whole plant or invertebrate. The experiment is classed as in vivo. The procedure:
The bioefficacy of the extracts were screened against S. oryzae and R. dominica on wheat at 1000 ppm. Required quantity of the extract dissolved in 6 ml of the solvent was pipetted over 60 gm wheat, taken in a 500 ml beaker. The grain was stirred with a glass rod to obtain uniform application. The control grain received the solvent alone. The treated grain was spread on petridish and kept overnight (12 hrs) for the solvent to evaporate. The 60 gm grain was divided into three lots of 20 gm each, taken in test tubes 25 mm diameter and 95 mm long.
Fifteen unsexed adults, 1-2 weeks old, of the rice weevil, Sitophilus oryzae and the lesser grain borer, Rhizopertha dominica were seeded into the tubes separately. The tubes were covered with muslin held by rubber bands. The mortality of the test insects was recorded after 1, 3, 7, 14 and 21 days. After the last count, the insects were discarded and the grain incubated to obtain the F1 progeny. The number of emerging progeny was recorded every second day till the emergence was complete. The progeny/adult day was calculated by Kazmaier et. al method. The progeny/adult day corrects for the reduction in the number of progeny due to adult mortality. A significant reduction in the progeny/adult day compared to the control indicates Insect Growth Regulating (IGR) activity, which is presented in Tables 1, 2 and 3.
Camptothecin obtained from Sigma Aldrich was assayed on wheat against S. oryzae and R. dominica as in example 1.

Where [3] appears, read: THP-1, inhibition at 100 μg/ml, 72 h.

The structures appear in SMILES notation. Converted amounts (≈) assume the structure as drawn. Where two headings read alike, the source gives them in different places.

Turning to `CC[C@H](OC1OC(CO)C(O)C(O)C1O)c1cc2n(c(=O)c1C)Cc1cc3ccccc3nc1-2` (stereo partly shown) [Camptothecanoid 1], the inhibition (as a rule, the share of the control response that was lost under treatment) at 100 µg/mL is 48.3% in experiment [1] and 70.9% in the experiment on THP 1 cell line (THP-1, 72 h).
In the case of `CC[C@](O)(C(=O)O)c1cc2n(c(=O)c1COC(C)=O)Cc1cc3ccccc3nc1-2` [Camptothecanoid 2], the inhibition at 100 µg/mL in experiment [1] was 88.4%; with THP 1 cell line (THP-1, 72 h), 87.5%.
`CC[C@](O)(C(=O)O)c1cc2n(c(=O)c1COC(C)=O)Cc1cc3c(OC)cccc3nc1-2` [Camptothecanoid 3]: the inhibition at 100 µg/mL in experiment [1] stood at 59%; in the experiment on THP 1 cell line (THP-1, 72 h), 90.2%.
Consider `CC[C@@]1(O)C(=O)OCc2c1cc1n(c2=O)Cc2cc3ccccc3nc2-1` [Camptothecin], for which the “No. of F1 progeny” value in experiment [2] (6.25 ppm on wheat) is listed as 00. Moreover, in experiment [2] (12.50 ppm on wheat), the “No. of F1 progeny” value was 00 and the “adult mortality (in words)” value was “no adult mortality”. Also, in experiment [2] (25 ppm on wheat), the “No. days for 100% kill” value is recorded as 21 days and the “No. of F1 progeny” value worked out at 00. Besides, in experiment [2] (50 ppm on wheat), the “No. days for 100% kill” value is 14 days and the “No. of F1 progeny” value turned out to be 00. In experiment [2] (75 ppm on wheat), the “No. days for 100% kill” value worked out at 7 days and the “No. of F1 progeny” value is given as 00. In experiment [2] (100 ppm on wheat), the “No. days for 100% kill” value stood at 3 days and the “No. of F1 progeny” value is on record as 00. In addition, in experiment [2] (Sitophilus oryzae), the mortality (in general, the share of the test organisms that died) at 6.25 ppm stood at 0%; the mortality at 12.5 ppm worked out at 0%; the mortality at 25 ppm is 100%; the mortality at 50 ppm came out at 100%. In experiment [2] (Sitophilus oryzae), the mortality at 75 ppm is 100% and the mortality at 100 ppm was 100%. Besides, the inhibition at 12.5 ppm in experiment [2] (Sitophilus oryzae, read-out: inhibition of F1 progeny) was determined as 100%.
As for `NNC(=O)c1ccncc1` [Isoniazid], in experiment [1] (read-out: IC90, XTT assay Mycobacterium tuberculosis Ra), the 90% effect concentration (IC90) (usually the concentration at which the effect reaches the 90% level) stood at 0.05 µg/mL (≈ 0.365 µM).
Take `CC(=O)O[C@H]1C(=O)[C@@]2(C)[C@H]([C@H](OC(=O)c3ccccc3)[C@]3(O)C[C@H](OC(=O)[C@H](O)[C@@H](NC(=O)c4ccccc4)c4ccccc4)C(C)=C1C3(C)C)[C@]1(OC(C)=O)CO[C@@H]1C[C@@H]2O` [Paclitaxel]: in the experiment on THP 1 cell line (setting [3]), the inhibition at 100 µg/mL amounted to 61%.
Turning to `CCCCCCCC(CC)COC(=O)c1ccccc1C(=O)OCC(CC)CCCCCCC` (stereo not shown) [Phthalate], the inhibition at 100 µg/mL amounted to 45.6% in experiment [1] and 20.1% with THP 1 cell line (setting [3]).

(Values after patent US9888690B2, “Insecticidal compounds from Nothapodites foetida and process for the extraction thereof” (priority 2011, dated 2018).)
